Reference: patent US20130231472A1, “USE OF MOLECULAR MARKERS FOR THE PRECLINICAL PROFILING OF INHIBITORS OF ENZYMES HAVING HISTONE DEACETYLASE ACTIVITY” (priority 2002, published 2013)

Legend:
HDAC-2 [1] = test: HDAC-2 protein levels in HEK293T cells (Westernblot); type: cell-based, human
Protocol: (§1) FIG. 6: (A) F9 teratocarcinoma or HEK293T embryonic kidney cells were exposed for indicated times to 1 mM VPA. Protein levels of HDAC-2 and HDACs 1 or 3 for reference (HDAC8; N-CoR and Sin3 as data not shown) were determined by Westernblot analysis. […] (C) The effect of other HDAC inhibitors on the amount of HDAC-2 protein was determined by using TSA (100 nM) in a time course analysis in F9 cells (left panel). The HDAC inhibitors TSA (100 nM), trapoxin (TPX, 10 nM), butyrate (1.5 mM) or MS275 (5 μM) were tested at a single time of exposure in HEK293T cells (right panel).
FIG. 9: (A) HEK293T cells were treated for 24 h with VPA or left untreated. The cell penetrating protease inhibitors pepstatin A, leupeptin, or ALLM were added as indicated at the time of VPA addition. (B) Proteasome inhibitors ALLN or MG-132 were added at the indicated concentrations 4 h before cells were harvested. Protein levels of HDAC-2 were determined by Westernblot analysis.

HDAC-2 [2] = test: HDAC-2 protein levels in K562 leukemia cells; type: cell-based, human
leukemic spleens = test: Apoptosis in leukemic spleens after in vivo treatment (TUNEL assay); set-up: species or system mice; conditions: VPA 400 mg/kg every 12 hours, 48 hours; FIG. 3A
Protocol: (§2) FIG. 3: (A) Secondary acute promyelocytic leukemias were induced in mice as described above. Leukemic mice were then treated with placebo (Ctrl), or VPA (400 mg/kg every 12 hours). Mice were sacrificed 48 hours after beginning of treatments, and then leukemic spleens were fixed and either stained for histological examination (hematoxylin-eosyn, left panels), or analyzed for the presence of apoptotic cells (TUNEL assay, right panels). (B) Secondary leukemias were obtained as above. Mice were sacrificed when leukemic invasion of peripheral organs was >75% (spleen). Splenocytes from healthy mice (taken as control, left panel), or from leukemic mice (>75% blasts, right panel) were put in culture and then treated with VPA (1 mM) for 48 hours. At the end of the treatment, apoptosis was measured by propidium iodide staining. The sub-G1 area indicates the hypodiploid DNA peak corresponding to cells with fragmented DNA undergoing apoptosis.

acetylated histones = test: Histone acetylation in spleen after in vivo treatment (Western blot, immunohistochemistry); set-up: species or system mice; conditions: for histone acetylation, spleen whole cell extracts: VPA 400 mg/kg, three and six hours, FIG. 2A
Protocol: FIG. 2: (A) Secondary acute promyelocytic leukemias were induced in mice as described above. (A) Leukemic mice or healthy mice (Ctrl) were then treated with placebo or VPA (400 mg/kg) for three and six hours. Mice were then sacrificed, whole cell extracts were prepared from the spleen (with >70% leukemic infiltration), and analyzed by SDS-PAGE followed by Western blot analysis using commercially available antibodies against acetylated histone H3. (B) Immunohistochemistry analysis of VPA-treated leukemic mice using a monoclonal antibody against acetylated histones.

HDAC-1 = HDAC-1 protein levels (Westernblot, reference); type: cell-based; conditions: 1 mM VPA; FIG. 6A; in some experiments a transient induction
Protocol: as §1

HDAC-2 [3] = test: HDAC-2 pulse labeling and pulse-chase analysis in HEK293T cells; type: cell-based, human
Protocol: FIG. 8: Synthesis and degradation rate of HDAC-2 were analyzed by pulse metabolic labeling with ^35S-methionine and pulse-chase analyses. ^35S-labelled HDAC-2 was detected by HDAC-2 specific immune precipitation followed by SDS-PAGE separation and autoradiography. (A) Pulse labeling for 1 h was performed in F9 and HEK293T cells which had been left untreated or were pretreated with 1 mM VPA for 24 h. (B) For pulse chase analysis cells were left untreated or pretreated for 24 h with 1 mM VPA and labeled with ^35S-methionine for an additional hour in the absence or presence of VPA. After removal of ^35S-methionine and addition of non-labeled methionine the elimination of radiolabeled HDAC-2 was followed over a period of 6 h. A pulse chase analysis was also performed in HEK293T cells without VPA pretreatment and addition of VPA (indicated by the (+) row) only at the time when the chase period was started. From HEK293T cell extracts also HDAC-3 was precipitated for reference.

[4] = tested on: splenocytes from healthy mice; test: Apoptosis of cultured normal splenocytes (propidium iodide staining); type: cell-based; conditions: VPA 1 mM, 48 hours, FIG. 3B
Protocol: as §2

RLIM = RLIM protein levels in HEK293T cells (Westernblot); type: cell-based, human; conditions: 24 hours, VPA 0.5, 1.5 or 5 mM, TSA 30, 100 or 300 nM, FIG. 12
Protocol: FIG. 12 (A) RLIM protein levels were determined by Westernblot analysis after treatment of HEK293T cells for 24 hours with the HDAC inhibitors VPA (0.5, 1.5, or 5 mM), TSA (30, 100 or 300 nM) or a combination of VPA (1.5 mM) and TSA (100 nM). Actin protein levels are shown as a control for equal loading. (B) RLIM protein levels were determined by Westernblot analysis after treatment of HEK293T cells for 24 hours with the HDAC inhibitor TSA (100 nM), the proteasome inhibitor ALLN (2.5 μM) or a combination of both. Actin protein levels are shown as a control for equal loading.

Ubc8 = Ubc8 expression in F9 cells (Northern blot, real time PCR); type: cell-based, murine; conditions: 1 mM VPA, FIG. 11
Protocol: FIG. 11 (A) F9 cells were treated for indicated times with 1 mM VPA and abundance of Ubc8 mRNA was determined by Northern blot analysis from 5 μg polyA^+ mRNA with a probe drived from the 3′-UTR of the cDNA. GAPDH mRNA was determined as reference. Phosphorimager analysis was performed for quantitative evaluation and relative values normalized for GAPDH are presented below the graph. One of two experiments with similar results is shown. (B) Ubc8 mRNA was also determined by real time PCR assuming an 1.5-fold amplification per cycle. The amplicon was part of the coding sequence of the Ubc8 mRNA. F9 cells were treated for 17 h with 1 mM VPA (V) or 100 nM TSA (T). Results were normalized for GAPDH expression. Average values ± range of duplicate determinations are shown.

HDAC-3 = HDAC-3 protein levels (Westernblot, reference); type: cell-based; conditions: 1 mM VPA; FIG. 6A; in some experiments a transient induction
Protocol: as §1

HDAC-2 mRNA = HDAC-2 mRNA levels in HEK293T cells (Northern blot); type: cell-based, human; conditions: 1 mM VPA, FIG. 7
Protocol: FIG. 7: F9 cells or HEK 293T cells were treated for indicated times with 1 mM VPA and the levels of HDAC-2 mRNA were determined by Northern blot analysis from 5 μg polyA^+ RNA.

In the case of CCCC(CCC)C(=O)O [VPA, Valproic acid], the HDAC-2 protein levels (HDAC-2 [1]; HEK293T cells, VPA 1 mM, TSA 100 nM, trapoxin 10 nM, butyrate 1.5 mM, MS275 5 μM) is reported as “reduced”, the “HDAC-2 protein levels at higher doses” value (HDAC-2 [1]; HEK 293T, VPA concentrations increased up to 5 or 10 mM, 36 h, FIG. 6B) is reported as “slightly more pronounced reduction” and the HDAC-2 protein levels (HDAC-2 [2]) is reported as “reduced”. For the same molecule, the “apoptotic cells in leukemic spleens (TUNEL)” value (leukemic spleens) was “induces massive apoptosis within leukemic spleens”, the “histone acetylation, spleen whole cell extracts” value (acetylated histones; leukemic mice (>70% leukemic infiltration)) was “enhanced levels of histone acetylation” and the “histone acetylation by immunohistochemistry” value (acetylated histones; leukemic mice, monoclonal antibody against acetylated histones, FIG. 2B) was “dramatic increase of histone acetylation in all cells”. For the same molecule, the “histone acetylation, spleen whole cell extracts” value (acetylated histones; normal mice) was “enhanced levels of histone acetylation”, the HDAC-1 protein levels (HDAC-1) was “not reduced” and the “HDAC-2 synthesis rate (35S-methionine pulse labeling)” value (HDAC-2 [3]; 1 mM VPA pretreatment 24 h, FIG. 8A) was “No substantial difference in HDAC-2 synthesis rate”. For the same molecule, the “half-life of HDAC-2 (pulse-chase)” value (HDAC-2 [3]; 1 mM VPA pretreatment 24 h, FIG. 8B) was “substantially decreased”, the “HDAC-2 protein degradation rate” value (HDAC-2 [3]; VPA added only at the time of chase, FIG. 8B) was “no effect” and the “apoptosis (propidium iodide, sub-G1)” value [4] was “unable to induce apoptosis of normal splenocytes”. For the same molecule, the “RLIM protein levels / degradation” value (RLIM) was “without changing expression of the E3 ubiquitin ligase, RLIM”, the “expression of the gene encoding Ubc8” value (Ubc8) was “inducible by VPA” and the HDAC-3 protein levels (HDAC-3) was “not reduced”. For the same molecule, the “HDAC-2 mRNA levels” value (HDAC-2 mRNA) was “no response of HDAC-2 mRNA levels”.
